According to US20260317367A1, “SALTS INCLUDING CRYSTALLINE SALTS OF 25-HYDROXY-CHOLEST-5-EN-3-SULFATE AND METHODS FOR PREPARING SAME” (Durect Corporation, priority 2022, published 2026):
“Also recorded” adds a separate entry of the source. Counter-ions that a name gives are not always drawn.

Experiments:
Type in all cases: physicochemical
[1] = Solubility of 25HC3S salts after one day at room temperature (HPLC, as free acid); conditions: one day; for Solubility in ACN: acetonitrile; for Solubility in EtOH: ethanol; for Solubility in EtOH / Solubility in MeOH: ≥ = did not reach saturation; for Solubility in IPA: isopropyl alcohol; for Solubility in MeOH: methanol; for Solubility in H2O: water
Method: These fluids were prepared per the instruction listed by Biorelevant (Biorelevant.com). Each buffer concentrate was diluted with water and mixed well. FaSSIF, FeSSIF, FaSSGF powder was added to each buffer and mixed to completely dissolve the powder. Buffers were stored at room temperature and used within 48 hours of preparation.
25HC3S salts were weighed in 8 mL or 4 mL glass vials with Teflon coated screw caps. Aliquots of each solvent were added to each sample and vortexed for about one minute until excess solid remained. Samples were placed on shaker at room temperature with 210 motion per minute shaking.
After one day, samples were pulled and checked if excess solid was present. About 1.5 mL aliquot of each sample was centrifuged at 12000 rpm for 12 to 15 minutes. […] Aliquots of the top clear solution of each centrifuged sample in MeOH, EtOH, IPA and ACN were diluted with diluent (water:MeOH 95:5) and assayed by HPLC. Samples of the salts in aqueous media were assayed by HPLC without dilution.
All solubility sample solutions of 25HC3S salts were determined using HPLC. A linear standard curve was constructed using standards with concentration between 11 μg/mL to 1.5 mg/mL as free acid forcing the curve to origin. Solubilities are reported as mg/mL free acid 25HC3S. Detection limit (LOD) of the HPLC method was calculated as 0.0007 mg/mL.

[2] = Hausner ratio and compressibility index of 25HC3S salts; conditions: for Compressibility Index: Table C3 heads this index in %
Method: Although there are some variations in the method of determining the compressibility index and Hausner ratio, the basic procedure is to measure the unsettled apparent volume, VO, and the final tapped volume, Vf, of the powder after tapping the material until no further volume changes occur. The compressibility index and the Hausner ratio are calculated as follows: […]
Both the Hausner ratio and the compressibility index are empirically established. The Hausner ratio and compressibility index are not absolute properties of a material; its value can vary depending on the methodology used to determine them. In this case, since the 14 salts of 25HC3S were measured the same way, the relative values should be accurate.
Table C3, from USP <1174> Powder Flow, describes the flow character of the powder based on the compressibility index and Hausner ratio values.
Powder was carefully poured into a 5 mL glass graduated cylinder (to contain) until it was close to or at 5.0 mL. This initial volume was recorded as Vo. The graduated cylinder was tapped on a hard surface for 200 times and the volume was recorded. The cylinder was tapped 100 times more, and the final volume Vf was recorded. Typically, the volume after 200 taps was identical to after 300 taps, or within 0.1 mL.

[3] = Dynamic vapor sorption (DVS), hygroscopicity
[4] = X-ray powder diffraction before and after DVS (form stability); conditions: 5% to 95% RH
Method: XRPD patterns were collected with a PANalytical X'Pert PRO MPD or a PANalytical Empyrean diffractometer using an incident beam of Cu radiation produced using an Optix long, fine-focus source. An elliptically graded multilayer mirror was used to focus Cu Kα X-rays through the specimen and onto the detector. Prior to the analysis, a silicon specimen (NIST SRM 640f) was analyzed to verify the observed position of the Si 111 peak is consistent with the NIST-certified position. A specimen of the sample was sandwiched between 3-μm-thick films and analyzed in transmission geometry. A beam-stop, short antiscatter extension, and antiscatter knife edge were used to minimize the background generated by air. Soller slits for the incident and diffracted beams were used to minimize broadening and asymmetry from axial divergence. Diffraction patterns were collected using a scanning position-sensitive detector (X'Celerator) located 240 mm from the specimen and Data Collector software v. 5.5. All images have the instrument labeled as X'Pert PRO MPD regardless of the instrument used.
XRPD patterns were collected with a PANalytical X'Pert PRO MPD diffractometer using an incident beam of Cu Kα radiation produced using a long, fine-focus source and a nickel filter. The diffractometer was configured using the symmetric Bragg-Brentano geometry. Prior to the analysis, a silicon specimen (NIST SRM 640f) was analyzed to verify the observed position of the Si 111 peak is consistent with the NIST-certified position. A specimen of the sample was prepared as a thin, circular layer centered on a silicon zero-background substrate. Antiscatter slits (SS) were used to minimize the background generated by air. Soller slits for the incident and diffracted beams were used to minimize broadening from axial divergence. Diffraction patterns were collected using a scanning position-sensitive detector (X'Celerator) located 240 mm from the sample and Data Collector software v. 5.5
Dynamic vapor sorption data was collected on a Surface Measurement System DVS Intrinsic instrument. The samples were not dried prior to analysis. Sorption and desorption data were collected over a range from 5% to 95% RH in 10% RH increments under a nitrogen purge. The equilibrium criteria used for the analyses were 0.001 dm/dt weight change in 5 minutes with a minimum step time of 30 minutes and maximum equilibration time of 180 minutes with a 3 minute data logging interval. Data were not corrected for the initial moisture content of the sample.

[5] = room temperature, as free acid, ND = not detected, detection limit 0.7 μg/mL, 1440 min, listed as 25HC3S choline
[6] = room temperature, as free acid, 1440 min, listed as 25HC3S choline
[7] = room temperature, as free acid, ND = not detected, detection limit 0.7 μg/mL, 1440 min, listed as 25HC3S hydroxyethylammonium
[8] = room temperature, as free acid, 1440 min, listed as 25HC3S hydroxyethylammonium
[9] = listed as 25HC3S hydroxyethylammonium

CC(CCCC(C)(C)O)C1CCC2C3CC=C4CC(OS(=O)(=O)O)CCC4(C)C3CCC12C (stereo not drawn) [Salt #4]
Solubility in 5% Dextrose [1, 5]: 0.093 mg/mL
Solubility in FaSSGF ([1]; FaSSGF, room temperature, as free acid, ND = not detected, detection limit 0.7 μg/mL, 1440 min, listed as 25HC3S choline): 0.008 mg/mL
Solubility in FaSSGF (in words) ([1]; FaSSGF, room temperature, listed as crystalline 25HC3S choline): low solubility
Solubility in FaSSIF ([1]; FaSSIF, room temperature, as free acid, 1440 min, listed as 25HC3S choline): 0.152 mg/mL
Solubility in FaSSIF (in words) ([1]; FaSSIF, room temperature, listed as crystalline 25HC3S choline): relatively high solubility
Solubility in FeSSIF ([1]; FeSSIF, room temperature, as free acid, 1440 min, listed as 25HC3S choline): 0.827 mg/mL
Solubility in FeSSIF (in words) ([1]; FeSSIF, room temperature, listed as crystalline 25HC3S choline): relatively high solubility
Solubility in ACN [1, 6]: 0.5 mg/mL
Solubility in EtOH [1, 6]: 3.4 mg/mL
Solubility in IPA [1, 6]: 0.6 mg/mL
Solubility in MeOH [1, 6]: 17.5 mg/mL
Solubility in saline / 0.9% sodium chloride (in words) ([1]; saline, room temperature, listed as crystalline 25HC3S choline): low solubility
Solubility in H2O [1, 5]: 0.107 mg/mL
Compressibility Index ([2]; listed as 25HC3S choline): 42
Hausner Ratio ([2]; listed as 25HC3S choline): 1.72
Weight loss on return to 5% relative humidity ([3]; DVS desorption, 95% to 5% RH): 0.5%
Reversibility of water uptake (in words) ([3]; DVS, RH reduced from 95% to 5%, listed as crystalline 25HC3S choline): no hysteresis; also recorded: reversibly lose all that water
Hygroscopicity (in words) ([3]; DVS, listed as 25HC3S choline): surprisingly low hygroscopicity
Hygroscopicity (in words) ([3]; DVS, listed as crystalline 25HC3S choline): not appreciably hygroscopic; also recorded: less hygroscopic
Change of x-ray powder diffraction pattern after DVS (in words) ([4]; listed as crystalline 25HC3S choline): does not appreciably change

CC(CCCC(C)(C)O)C1CCC2C3CC=C4CC(OS(=O)(=O)O)CCC4(C)C3CCC12C (stereo not drawn) [Salt #5]
solubility at 24 h ([1]; 0.9% nacl, room temperature, as free acid, ND = not detected, detection limit 0.7 μg/mL, read-out: Solubility in 0.9% NaCl): 0.002 mg/mL
Solubility in 5% Dextrose [1, 7]: 0.045 mg/mL
Solubility in FaSSGF (in words) ([1]; FaSSGF, room temperature, listed as crystalline 25HC3S hydroxyethylammonium): low solubility
Solubility in FaSSIF ([1]; FaSSIF, room temperature, as free acid, 1440 min, listed as 25HC3S hydroxyethylammonium): 0.107 mg/mL
Solubility in FaSSGF ([1]; Fasted State Simulated Gastric Fluid, pH 1.6, room temperature, as free acid, LOD 0.0007 mg/mL): no solubilized drug was detected
Solubility in FeSSIF ([1]; FeSSIF, room temperature, as free acid, 1440 min, listed as 25HC3S hydroxyethylammonium): 0.718 mg/mL
Solubility in methanol (in words) ([1]; MeOH, room temperature): did not reach saturation
Solubility in ACN [1, 8]: 0.2 mg/mL
Solubility in EtOH [1, 8]: ≥22.0 mg/mL
Solubility in IPA [1, 8]: 3.7 mg/mL
Solubility in MeOH [1, 8]: ≥47.0 mg/mL
Solubility in H2O [1, 7]: 0.043 mg/mL
Compressibility Index [2, 9]: 18
Hausner Ratio [2, 9]: 1.22
Hygroscopicity (in words) ([3]; DVS, listed as crystalline 25HC3S hydroxyethylammonium): hygroscopic
Change of x-ray powder diffraction pattern after DVS (in words) ([4]; listed as crystalline 25HC3S hydroxyethylammonium): appearance of extra x-ray powder diffraction peaks
